# Data taken from patent US4461773A, “P-Oxooxazolidinylbenzene compounds as antibacterial agents” (E. I. DuPont de Nemours and Company, priority 1984, dated 1984).
# Key:
# Clostridium sp. = experiment: In vitro antibacterial spectrum, agar dilution for anaerobic bacteria (Table II); type: cell-based; conditions: 5 isolates
# Description: (§1) The agar dilution method described by A. L. Barry ("The Antimicrobic Susceptibility Test: Principles and Practice", 1976, Lea and Febiger, Philadelphia, Pa.) with compound concentrations of 32 μg/ml to 0.06 μg/ml, was used to determine the inhibitory activity of l-4-[5-(hydroxymethyl)-2-oxooxazolidin-3-yl]benzenesulfonamide for anaerobic bacteria.
# Fusobacterium sp. = experiment: as above; type: cell-based; conditions: 4 isolates
# Description: as §1
# Gram - Anaerobic Cocci = experiment: as above; type: cell-based; conditions: 7 isolates
# Description: as §1
# Bacteroides sp. = experiment: as above; type: cell-based; conditions: 23 isolates
# Description: as §1
# Staphylococcus aureus = experiment: In vivo efficacy in mice infected intraperitoneally with Staphylococcus aureus (Table III); conditions: 4 h, mice, intraperitoneal infection, 5% hog gastric mucin, oral dosing at infection and four hours post-infection, Reed-Muench, read-out: ED50, S. auerus
# Description: (§2) In-vivo efficacy determinations were performed by inoculating mice interaperitoneally with cultures of the infecting organism diluted to produce 90-100% mortality in control animals within seven days. The diluents used were trypticase soy broth for E. coli, Proteus sp. and Psuedomonas aeruginosa and 5% hog gastric mucin for Staphylococcus aureus infections. The compounds, dissolved or suspended in 0.25% methocel.cndot.H2 O were administered orally by intubation at the time of infection and again at four hours post-infection. Mortality was recorded daily until test termination and the 50 percent effective dose. ED50, was calculated by the Reed-Muench method (Reed, L. G. and Muench, H., "A simple method of estimating fifty percent end points." American Journal of Hygiene, 27, 1938, 493-497).
# Haemophilus sp. = experiment: In vitro antibacterial spectrum, agar dilution (Table II); type: cell-based; conditions: 4 isolates, GC agar, 6% CO2, 24-hour, 35° C.
# Description: (§3) A summary of the in-vitro antibacterial spectrum of l-4-[5-(hydroxymethyl)-2-oxooxazolidin-3-yl]benzenesulfonamide, is shown in Table II. The minimal inhibitory concentrations for the aerobic and facultative anaerobic test isolates representing two gram-positive and eleven gram-negative genera were determined by an agar dilution method. The method is state of the art and is as follows. Mueller-Hinton agar plates are prepared containing two-fold compound concentrations ranging from 128 μg/ml to 1.0 μg/ml for the susceptibility testing of the bacterial strains except Neisseria gonorrhoea and Hemophilus sp. The latter organisms are tested using GC agar containing 1% Bacto-Supplement C (Difco Laboratories, Detroit, Mich.) and are incubated under 6% CO2. The agar plates are inoculated with a 0.001 ml calibrated loopful of bacterial inoculum diluted to contain 5×10^6 colony-forming units (CFU) per ml.
# Pseudomonas sp. = experiment: as above; type: cell-based; conditions: 79 isolates, 24-hour, 35° C.
# Description: as §3
# Providencia sp. = experiment: as above; type: cell-based; conditions: 12 isolates, 24-hour, 35° C.
# Description: as §3
# Serratia sp. = experiment: as above; type: cell-based; conditions: 44 isolates, 24-hour, 35° C.
# Description: as §3
# Streptococci sp. = experiment: as above; type: cell-based; conditions: 14 isolates, 24-hour, 35° C.
# Description: as §3
# Salmonella sp. = experiment: as above; type: cell-based; conditions: 6 isolates, 24-hour, 35° C.
# Description: as §3
# Shiqella sp. = experiment: as above; type: cell-based; conditions: 24 h, read-out: MEAN MIC, Shiqella sp.
# Description: as §3
# Klebsiella sp. = experiment: as above; type: cell-based; conditions: 50 isolates, 24-hour, 35° C.
# Description: as §3
# Proteus sp. = experiment: as above; type: cell-based; conditions: 88 isolates, 24-hour, 35° C.
# Description: as §3
# Enterobacter sp. = experiment: as above; type: cell-based; conditions: 41 isolates, 24-hour, 35° C.
# Description: as §3
# E. Coli [1] = experiment: as above; type: cell-based; conditions: Escherichia coli, 86 isolates, 24-hour, 35° C.
# Description: as §3
# Neisseria sp. = experiment: as above; type: cell-based; conditions: 43 isolates, 24-hour, 35° C.
# Description: as §3
# Staphylococci sp. = experiment: as above; type: cell-based; conditions: 38 isolates, 24-hour, 35° C.
# Description: as §3
# E. coli [2] = experiment: In vivo efficacy in mice infected intraperitoneally with E. coli (Table III); conditions: Escherichia coli, 4 h; mice, intraperitoneal infection, trypticase soy broth; oral dosing at infection and four hours post-infection; Reed-Muench; read-out: ED50, E. Coli
# Description: as §2
# S. epidermidis = experiment: In vitro broth microdilution minimal inhibitory concentration, S. epidermidis (Table I); type: cell-based; conditions: Staphylococcus epidermidis; broth microdilution, Mueller-Hinton broth, 24 hour; read-out: MIC (minimal inhibitory concentration), S. epidermidis
# Source text: (§4) A list is presented in Table I of analogs which exert an in-vitro antibacterial effect.
# E. Coli [3] = experiment: In vitro broth microdilution minimal inhibitory concentration, E. Coli (Table I); type: cell-based; conditions: Escherichia coli; broth microdilution, Mueller-Hinton broth, 24 hour; read-out: MIC (minimal inhibitory concentration), E. Coli
# Source text: as §4
smiles,measurement,setting,value
"NS(=O)(=O)c1ccc(N2C[C@@H](CO)OC2=O)cc1 [Example 2, l-4-[5-(Hydroxymethyl)-2-oxooxazolidin-3-yl]benzenesulfonamide]",MIC,Clostridium sp.,16.8 µg/mL
same,MIC,Fusobacterium sp.,0.9 µg/mL
same,MIC,Gram - Anaerobic Cocci,6.1 µg/mL
same,MIC,Bacteroides sp.,≥ 15.1 µg/mL
same,ED50,Staphylococcus aureus,17.1 mg/kg
same,MIC,Haemophilus sp.,32 µg/mL
same,MIC,Pseudomonas sp.,≥ 117 µg/mL
same,MIC,Providencia sp.,41.3 µg/mL
same,MIC,Serratia sp.,≥ 96 µg/mL
same,MIC,Streptococci sp.,7.7 µg/mL
same,MIC,Salmonella sp.,32 µg/mL
same,MIC,Shiqella sp.,8 µg/mL
same,MIC,Klebsiella sp.,39.4 µg/mL
same,MIC,Proteus sp.,29.1 µg/mL
same,MIC,Enterobacter sp.,58.5 µg/mL
same,MIC,E. Coli [1],29.8 µg/mL
same,MIC,Neisseria sp.,12.3 µg/mL
same,MIC,Staphylococci sp.,22.3 µg/mL
same,ED50,E. coli [2],13.2 mg/kg
same,MIC,S. epidermidis,100 µg/mL
same,MIC,E. Coli [3],50 µg/mL
